In patent US20070027130A1, “Tricyclic 6-alkylidene-penem beta-lactamase inhibitors and beta-lactam antibiotic combination: a broad spectrum antibiotic” (priority 2005, published 2007):

Key:
Test in all cases: β-Lactamase inhibition, nitrocefin spectrophotometric assay
[1] = target: class A β-lactamase TEM-1 (Escherichia coli, UniProt P62593); format: biochemical, E. coli; conditions: nitrocefin 50 μg/ml; 10 min preincubation at 25° C.; pH 7.0
class B enzyme CcrA = class B enzyme CcrA (Bacteroides fragilis, UniProt P25910); format: biochemical; conditions: nitrocefin 50 μg/ml; 10 min preincubation at 25° C.; pH 7.0; read-out: IC50 Class-B Ccr
class C enzyme AmpC = class C enzyme AmpC (Enterobacter cloacae, UniProt P05364); format: biochemical
[2] = target: class A β-lactamase Imi-1 (Enterobacter cloacae, UniProt Q46991)
Chain of class A β-lactamase Imi-1 (Q46991 entry or part of it): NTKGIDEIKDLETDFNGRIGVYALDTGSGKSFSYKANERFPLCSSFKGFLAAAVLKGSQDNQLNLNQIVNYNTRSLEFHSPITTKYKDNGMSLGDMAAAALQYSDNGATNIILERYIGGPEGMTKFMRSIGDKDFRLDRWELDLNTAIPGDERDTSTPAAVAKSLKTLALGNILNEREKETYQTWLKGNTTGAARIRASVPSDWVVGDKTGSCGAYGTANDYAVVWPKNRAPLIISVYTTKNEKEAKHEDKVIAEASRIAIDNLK

Chain of class C enzyme AmpC (P05364 21-381): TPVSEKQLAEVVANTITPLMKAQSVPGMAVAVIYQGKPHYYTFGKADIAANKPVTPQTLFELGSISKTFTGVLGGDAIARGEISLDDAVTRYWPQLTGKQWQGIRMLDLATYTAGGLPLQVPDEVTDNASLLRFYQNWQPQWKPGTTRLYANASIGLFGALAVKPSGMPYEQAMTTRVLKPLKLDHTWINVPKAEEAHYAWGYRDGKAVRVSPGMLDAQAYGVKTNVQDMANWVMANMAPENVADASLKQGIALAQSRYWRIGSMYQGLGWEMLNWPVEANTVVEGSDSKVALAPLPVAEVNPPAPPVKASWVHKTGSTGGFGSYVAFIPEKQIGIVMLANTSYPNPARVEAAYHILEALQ
Chain of class A β-lactamase TEM-1 (P62593 24-286 limits assumed): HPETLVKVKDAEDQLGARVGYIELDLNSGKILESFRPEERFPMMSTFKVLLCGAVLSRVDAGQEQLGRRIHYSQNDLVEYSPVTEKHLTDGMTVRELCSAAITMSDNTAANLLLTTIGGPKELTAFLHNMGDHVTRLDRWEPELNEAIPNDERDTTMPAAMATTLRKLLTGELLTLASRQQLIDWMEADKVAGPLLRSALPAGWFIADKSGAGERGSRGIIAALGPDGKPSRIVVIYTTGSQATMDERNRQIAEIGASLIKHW
Chain of class B enzyme CcrA (P25910 19-249): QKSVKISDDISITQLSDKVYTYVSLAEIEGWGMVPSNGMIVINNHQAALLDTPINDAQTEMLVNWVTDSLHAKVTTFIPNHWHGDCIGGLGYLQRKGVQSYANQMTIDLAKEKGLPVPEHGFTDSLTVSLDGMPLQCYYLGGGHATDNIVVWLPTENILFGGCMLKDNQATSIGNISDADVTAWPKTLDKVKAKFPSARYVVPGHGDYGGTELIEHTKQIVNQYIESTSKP

SMILES | IC50 [1] | IC50 (class B enzyme CcrA) | IC50 (class C enzyme AmpC) | IC50 [2]
O=C(O)C1=CS[C@@H]2/C(=C\c3cn4c5c(sc4n3)CCC5)C(=O)N12 [Compound 1, (5R),(6Z)-6-(6,7-dihydro-5H-cyclopenta[d]imidazo[2,1-b][1,3]thiazol-2-ylmethylene)-7-oxo-4-thia-1-azabicyclo[3.2.0]hept-2-ene-2-carboxylic acid] | 1.4 nM | 240 nM | 2.4 nM | –
O=C(O)C1=CS[C@@H]2/C(=C\c3cn4c5c(sc4n3)COCC5)C(=O)N12 [Compound 2, (5R),(6Z)-6-(5,8-dihydro-6H-imidazo[2,1-b]pyrano[4,3-d][1,3]thiazol-2-ylmethylene)-7-oxo-4-thia-1-azabicyclo[3.2.0]hept-2-ene-2-carboxylic acid] | 2.8 nM | 200 nM | 1.5 nM | 100 nM
